Results from article PMC12316308, “Interactions of substrates and phosphinyl containing inhibitors with bacterial and human zinc proteases” (PLOS One, 2025).
Several values for one entry are separate records, joined by “and”; a condition that tells them apart may be missing. Equal entries are not always repeated. Entries after “also recorded” stand apart in the source; their conditions may differ. Where two headings read alike, the source gives them in different places.

Columns and labels:
[1] = target: T1, Mag-Trypsin activated MMP-9 (MMP-9(MT)) (Homo sapiens, UniProt P14780); assay: Enzyme inhibition kinetics, fluorogenic substrate ES001; type: biochemical; settings: for Vi/V0 avg: Trypsin activated MMP-9, average
T1 construct: made in house; host or cells: Sf9 and High Five insect cells
T1 sequence (P14780 107-707 limits assumed): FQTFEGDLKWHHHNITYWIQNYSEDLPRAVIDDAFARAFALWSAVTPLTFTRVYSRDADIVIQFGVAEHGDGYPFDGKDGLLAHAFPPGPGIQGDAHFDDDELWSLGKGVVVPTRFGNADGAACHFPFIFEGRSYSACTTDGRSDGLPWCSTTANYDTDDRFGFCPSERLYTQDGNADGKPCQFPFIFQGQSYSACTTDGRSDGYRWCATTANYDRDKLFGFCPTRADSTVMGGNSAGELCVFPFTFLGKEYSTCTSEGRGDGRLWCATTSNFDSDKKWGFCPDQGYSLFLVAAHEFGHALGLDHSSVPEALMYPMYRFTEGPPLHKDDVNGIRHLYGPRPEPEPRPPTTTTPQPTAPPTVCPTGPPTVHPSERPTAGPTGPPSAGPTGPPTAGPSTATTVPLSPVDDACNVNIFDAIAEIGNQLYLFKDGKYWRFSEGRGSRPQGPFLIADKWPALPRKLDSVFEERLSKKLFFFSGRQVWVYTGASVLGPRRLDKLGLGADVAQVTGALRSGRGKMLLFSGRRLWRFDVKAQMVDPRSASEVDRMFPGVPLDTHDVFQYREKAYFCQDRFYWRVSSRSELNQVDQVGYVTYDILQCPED

[2] = target: T2, aureolysin (ALN) (Staphylococcus aureus, UniProt P81177); assay: Enzyme inhibition kinetics, fluorogenic substrate ES005; type: biochemical; settings: for remaining activity at 100 µM: 100 µM inhibitor
T2 construct: purchased BioCentrum Ltd (Kraków, Poland)
T2 sequence (P81177 209-509): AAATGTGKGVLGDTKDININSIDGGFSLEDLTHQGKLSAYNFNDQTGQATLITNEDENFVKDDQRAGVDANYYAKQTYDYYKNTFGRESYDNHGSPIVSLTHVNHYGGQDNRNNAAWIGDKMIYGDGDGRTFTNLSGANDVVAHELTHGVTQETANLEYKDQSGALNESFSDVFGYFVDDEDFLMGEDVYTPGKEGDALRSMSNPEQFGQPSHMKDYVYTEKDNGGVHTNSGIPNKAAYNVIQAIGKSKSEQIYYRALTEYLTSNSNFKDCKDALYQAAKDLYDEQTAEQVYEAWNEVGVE

[3] = target: T3, pseudolysin (PLN, LasB) (Pseudomonas aeruginosa, UniProt P14756); assay: as above; type: biochemical; settings: for remaining activity at 100 µM: 100 µM inhibitor
T3 construct: purchased Calbiochem (San Diego, CA, USA)
T3 sequence (P14756 198-498): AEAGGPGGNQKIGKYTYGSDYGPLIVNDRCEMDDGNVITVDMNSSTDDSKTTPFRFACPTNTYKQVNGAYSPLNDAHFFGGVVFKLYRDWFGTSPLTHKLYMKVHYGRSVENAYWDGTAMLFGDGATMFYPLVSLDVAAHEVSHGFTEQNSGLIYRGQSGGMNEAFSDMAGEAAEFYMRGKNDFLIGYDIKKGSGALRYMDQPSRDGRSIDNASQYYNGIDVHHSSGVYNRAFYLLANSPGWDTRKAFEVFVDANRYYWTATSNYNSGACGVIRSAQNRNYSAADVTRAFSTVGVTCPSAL

[4] = target: T4, thermolysin (TLN) (Bacillus thermoproteolyticus, UniProt P00800); assay: as above; type: biochemical; settings: for vi/v0 avg (time dependent inhibition, Supplementary Figure S8): Thermolysin, inhibitor 100 µM
T4 construct: purchased Calbiochem (San Diego, CA, USA)
T4 sequence (P00800 233-548): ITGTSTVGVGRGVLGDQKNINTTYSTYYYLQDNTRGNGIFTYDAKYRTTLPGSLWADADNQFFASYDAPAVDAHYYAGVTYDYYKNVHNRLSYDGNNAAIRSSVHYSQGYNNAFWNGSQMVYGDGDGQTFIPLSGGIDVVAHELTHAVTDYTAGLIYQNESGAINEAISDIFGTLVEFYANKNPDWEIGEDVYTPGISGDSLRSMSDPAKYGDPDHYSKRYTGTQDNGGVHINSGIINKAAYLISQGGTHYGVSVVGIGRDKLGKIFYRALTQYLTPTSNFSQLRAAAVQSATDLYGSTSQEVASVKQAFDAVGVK
Summary of the method: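 Initial rates were read at 37 °C (ex 320/em 405 nm) with 4.0 µM substrate, ES001 for MMP-14 (1.0 nM) and ES005 for PLN (0.5 nM), TLN (0.21 nM), ALN (1.4 nM), in pH 7.5 Hepes, 10 mM CaCl2, 0.005% Brij-35, 1.0% DMSO. Enzymes were preincubated 30 min at room temperature or not; IC50 fitted, Ki from IC50 using Km.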

[5] = target: MMP-9; settings: previously reported; cited from earlier work
[6] = target: MMP-14; settings: previously reported; cited from earlier work

NC(=O)C(CCC(=O)O)NC(=O)C(CCC(=O)O)NC(=O)C(Cc1cc(-c2ccc(-c3cccc(Cl)c3)cc2)no1)CP(=O)(O)c1ccc(Br)cc1 (stereo not drawn) [H-1]
Vi/V0 avg ([1]; [H1] 30 μM): 0.6506
Vi/V0 avg ([1]; [H1] 40 μM): 0.6729
Vi/V0 avg ([1]; [H1] 50 μM): 0.6218
Vi/V0 avg ([1]; [H1] 60 μM): 0.5683
Vi/V0 avg ([1]; [H1] 70 μM): 0.5353
Vi/V0 avg ([1]; [H1] 80 μM): 0.5363
Vi/V0 avg ([1]; [H1] 90 μM): 0.4452
Vi/V0 avg ([1]; [H1] 100 μM): 0.4212
vi/v0 Av (bar diagram figure 7) ([1]; rMMP-9 (Mag-trypsin activated), inhibitor 100 μM, average over 0, 15, 30 min preincubation): 0.4755
vi/v0 (relative enzyme activity with inhibitor), single determinations ([1]; rMMP-9 (Mag-trypsin activated), inhibitor 100 μM, preincubation 0 min): 0.4571 and 0.4536 and 0.4887 and 0.489
vi/v0 (relative enzyme activity with inhibitor), single determinations ([1]; rMMP-9 (Mag-trypsin activated), inhibitor 100 μM, preincubation 15 min): 0.3806 and 0.5206 and 0.4881 and 0.528
vi/v0 (relative enzyme activity with inhibitor), single determinations ([1]; rMMP-9 (Mag-trypsin activated), inhibitor 100 μM, preincubation 30 min): 0.4739 and 0.4997 and 0.4971 and 0.4295
remaining activity at 10 µM ([1]; read-out: Vi/V0, Trypsin activated MMP-9, [H1] 10 μM, replicate vi over each of 4 controls): 76.1%
remaining activity at 40 µM ([1]; read-out: Vi/V0, Trypsin activated MMP-9, [H1] 40 μM, replicate vi over each of 4 controls): 63.2%
remaining activity at 50 µM ([1]; read-out: Vi/V0, Trypsin activated MMP-9, [H1] 50 μM, replicate vi over each of 4 controls): 58.9%
remaining activity at 60 µM ([1]; read-out: Vi/V0, Trypsin activated MMP-9, [H1] 60 μM, replicate vi over each of 4 controls): 52.9%
remaining activity at 70 µM ([1]; read-out: Vi/V0, Trypsin activated MMP-9, [H1] 70 μM, replicate vi over each of 4 controls): 49.6%
remaining activity at 80 µM ([1]; read-out: Vi/V0, Trypsin activated MMP-9, [H1] 80 μM, replicate vi over each of 4 controls): 51%
remaining activity at 90 µM ([1]; read-out: Vi/V0, Trypsin activated MMP-9, [H1] 90 μM, replicate vi over each of 4 controls): 44.2%
remaining activity at 100 µM ([1]; read-out: Vi/V0, Trypsin activated MMP-9, [H1] 100 μM, replicate vi over each of 4 controls): 40.5%
remaining activity at 100 µM ([1]; read-out: vi/v0 (single replicate), rMMP-9 (Mag-trypsin activated), 100 µM inhibitor, no preincubation): 45.7%
remaining activity at 100 µM ([1]; read-out: vi/v0 avg, rMMP-9 (Mag-trypsin activated), 100 µM inhibitor, no preincubation): 47.2%
remaining activity at 100 µM ([2]; 0.25 h, read-out: vi/v0 (single replicate), Aureolysin, 15 min pre incubation): 81.9%
remaining activity at 100 µM ([2]; 0.25 h, read-out: vi/v0 avg, Aureolysin, 15 min pre incubation): 88.7%
remaining activity at 100 µM ([2]; 0.5 h, read-out: vi/v0 (single replicate), Aureolysin, 30 min pre incubation): 89.6%
remaining activity at 100 µM ([2]; 0.5 h, read-out: vi/v0 avg, Aureolysin, 30 min pre incubation): 89.8%
inhibitory effect on enzymatic activity ([2]; ALN, 100 μM compound, in words, 100 µM): did not inhibit; also recorded: no inhibition
vi/v0 Av (bar diagram figure 7) ([2]; Aureolysin (ALN), inhibitor 100 μM, average over 0, 15, 30 min preincubation): 0.886
vi/v0 (relative enzyme activity with inhibitor), single determinations ([2]; Aureolysin (ALN), inhibitor 100 μM, preincubation 0 min): 0.8363 and 0.9057 and 0.9048 and 0.862
vi/v0 (relative enzyme activity with inhibitor), single determinations ([2]; Aureolysin (ALN), inhibitor 100 μM, preincubation 15 min): 0.8192 and 0.9295 and 0.9112
vi/v0 (relative enzyme activity with inhibitor), single determinations ([2]; Aureolysin (ALN), inhibitor 100 μM, preincubation 30 min): 0.8961 and 0.9218 and 0.8734
remaining activity at 100 µM ([2]; read-out: vi/v0 (single replicate), Aureolysin, no preincubation): 83.6%
remaining activity at 100 µM ([2]; read-out: vi/v0 avg, Aureolysin, no preincubation): 87.7%
remaining activity at 100 µM ([3]; 0.25 h, read-out: vi/v0 (single replicate), Pseudolysin, 15 min pre incubation): 97.4%
remaining activity at 100 µM ([3]; 0.25 h, read-out: vi/v0 avg, Pseudolysin, 15 min pre incubation): 100%
remaining activity at 100 µM ([3]; 0.5 h, read-out: vi/v0 (single replicate), Pseudolysin, 30 min pre incubation): 99%
remaining activity at 100 µM ([3]; 0.5 h, read-out: vi/v0 avg, Pseudolysin, 30 min pre incubation): 96.9%
inhibitory effect on enzymatic activity ([3]; PLN, 100 μM compound, in words, 100 µM): did not inhibit; also recorded: no inhibition
vi/v0 Av (bar diagram figure 7) ([3]; Pseudolysin (PLN), inhibitor 100 μM, average over 0, 15, 30 min preincubation): 0.993
vi/v0 (relative enzyme activity with inhibitor), single determinations ([3]; Pseudolysin (PLN), inhibitor 100 μM, preincubation 0 min): 0.9731 and 1.039 and 1.005 and 1.023
vi/v0 (relative enzyme activity with inhibitor), single determinations ([3]; Pseudolysin (PLN), inhibitor 100 μM, preincubation 15 min): 0.9736 and 1.014 and 0.9905 and 1.0217
vi/v0 (relative enzyme activity with inhibitor), single determinations ([3]; Pseudolysin (PLN), inhibitor 100 μM, preincubation 30 min): 0.9904 and 0.9857 and 0.9514 and 0.949
remaining activity at 100 µM ([3]; read-out: vi/v0 (single replicate), Pseudolysin, no preincubation): 97.3%
remaining activity at 100 µM ([3]; read-out: vi/v0 avg, Pseudolysin, no preincubation): 101%
inhibitory effect on enzymatic activity ([4]; TLN, 100 μM compound, in words, 100 µM): did not inhibit; also recorded: no inhibition
vi/v0 Av (bar diagram figure 7) ([4]; Thermolysin (TLN), inhibitor 100 μM, average over 0, 15, 30 min preincubation): 1.079
vi/v0 (relative enzyme activity with inhibitor), single determinations ([4]; Thermolysin (TLN), inhibitor 100 μM, preincubation 0 min): 1.072 and 1.233 and 0.6933 and 1.269
vi/v0 (relative enzyme activity with inhibitor), single determinations ([4]; Thermolysin (TLN), inhibitor 100 μM, preincubation 15 min): 1.072 and 0.7991 and 1.161 and 1.236
vi/v0 (relative enzyme activity with inhibitor), single determinations ([4]; Thermolysin (TLN), inhibitor 100 μM, preincubation 30 min): 1.057 and 0.7107 and 1.167 and 1.093
vi/v0 avg (time dependent inhibition, Supplementary Figure S8) ([4]; 15 min pre incubation): 1.067
vi/v0 avg (time dependent inhibition, Supplementary Figure S8) ([4]; 30 min pre incubation): 1.007
vi/v0 avg (time dependent inhibition, Supplementary Figure S8) ([4]; No preincubation): 1.0666
Ki [5]: 1300 nM
Ki [6]: 140 nM
